# Experimental data: patent US20240391940A1, “FUSED RING-CONTAINING COMPOUND, APPLICATION THEREOF, AND COMPOSITION CONTAINING SAME” (GenEros Biopharma Ltd., priority 2020, published 2024)
# Values joined by “and” are separate entries in the source; they are usually repeats but may differ in a detail not shown here. Equal values may be shown once.
# Legend:
# Assay type in all cases: in vivo, C57BL/6 Apoe KO mice
# [1] = tested on: Apoe KO mouse atherosclerosis model; test: Atherosclerosis model (Apoe KO mice, high-fat diet): blood lipid tests TCHO, TG, LDL-C, HDL-C; parameters: blood lipids (CHO) in Apo E−/− mice / blood lipids (TG) in Apo E−/− mice / blood lipids (HDL-C) in Apo E−/− mice / blood lipids (LDL-C) in Apo E−/− mice: unit not given here; settings: for blood lipids (CHO) in Apo E−/− mice / blood lipids (HDL-C) in Apo E−/− mice / blood lipids (LDL-C) in Apo E−/− mice / blood lipids (TG) in Apo E−/− mice: HFD + ATV-5 mpk, 5 mg/kg
# Method: (§1) Method: Apoe KO mice were tested for basal blood lipid levels and divided into a normal control group and a high-fat group. After 8 weeks of housing, the mice from the high-fat group were divided into 4 groups of about 8: a normal diet group (Chow), a high-fat diet model group (HFD), an Atorvastatin positive group (HFD+atorvastatin 5 mpk, QD), and a GEN1-284s group (284-60 mpk, QD). Oral administration was performed for 8 consecutive weeks, and the effect of the compound on the following indicators in Apoe KO mice was observed: 4 blood lipid tests (TC, TG, HDL-C and LDL-C), aortic plaque En-face staining, and pathological oil red staining of the cardiac outflow tract.
# (§2) Mice from the groups except for the normal diet control group (Chow) were fed with high-fat feed every day for […]. From week 9, each group was orally administered solvent or a corresponding test compound, and body weight data were recorded every day for 8 consecutive weeks. After the first 8 weeks' high-fat diet, blood samples were taken and centrifuged to separate serum, and the serum was tested for blood lipid levels (TCHO, TG, LDL-C and HDL-C). The mice were randomly grouped according to the TCHO results and body weight. During the subsequent 8 weeks of administration, blood lipid tests (TCHO, TG, LDL-C and HDL-C) were run once every 4 weeks.
# Mice were fasted overnight, and blood (150 μL) was collected via mandibular blood sampling or eye ball removal (for endpoint only) and left at room temperature for 2 h. The blood was centrifuged at 4° C. at 7000 rpm for 10 min, and serum was pipetted, quick-frozen in dry ice and then stored at −80° C. before analysis. The serum was tested for the biochemical indicators TCHO, TG, LDL-C and HDL-C using kits and a microplate reader.
# [2] = tested on: Apoe KO mouse atherosclerosis model; test: Atherosclerosis model: aortic plaque En-face staining and plaque area
# Method: as §1, §2
# At the end of the experiment, the mice were euthanized by CO2 inhalation, and their hearts and aortas (from the aortic arch to the iliac artery) were isolated. The isolated artery was dissected longitudinally from the aortic arch to the iliac artery, fixed in 4% paraformaldehyde for 30 min, synchronized with 60% isopropanol for 10 min, then stained in 60% oil red for 30 min, and then washed with 60% isopropanol 3 times for 5 min each time. Finally, the stained aorta was washed with deionized water and photographed. The proportion of red plaque areas was measured using Image Pro Plus 6.0 (Media Cybernetics, MD, US).
# [3] = tested on: Apoe KO mouse atherosclerosis model; test: Atherosclerosis model: plaques in the cardiac (left ventricular) outflow tract
# Method: as §1, §2
# Mouse heart samples were fixed overnight in 4% paraformaldehyde solution and dehydrated in sucrose solution. Then, the samples were embedded with OCT (Sakura, Japan) under a stereo microscope and made into 10 μm frozen sections. The sections were stained with oil red ORO and then subjected to routine pathological examinations. Images of the outflow tract were acquired under an optical microscope at 4× magnification, and high-quality morphological observations were carried out using an eyepiece with 20× magnification. The percentage of intimal lesions in the cardiac outflow tract was calculated. The detection criteria followed the criteria for histological classification of human atherosclerotic disease, which are described in detail below:
# The area of plaques in the left ventricular outflow tract was measured using a microscope, and the proportion of plaques in the left ventricular outflow tract was calculated; this value reflects the degree of stenosis in the cardiac outflow tract vessel.
# [4] = Apoe KO mice, high-fat diet, atorvastatin 5 mpk QD oral
compound,measurement,setting,value
CC(C)c1c(C(=O)Nc2ccccc2)c(-c2ccccc2)c(-c2ccc(F)cc2)n1CC[C@@H](O)C[C@@H](O)CC(=O)O [ATV],blood lipids (CHO) in Apo E−/− mice,"[1]; Time 1, individual mice",1.195 and 1.061 and 1.217 and 1.075 and 1.359 and 0.7849 and 0.5037
same,blood lipids (HDL-C) in Apo E−/− mice,"[1]; Time 1, individual mice",0.4304 and 1.163 and 1.735 and 1.563 and 1.618 and 1.29 and 1.027
same,blood lipids (LDL-C) in Apo E−/− mice,"[1]; Time 1, individual mice",1.101 and 1.061 and −0.07821 and 1.123 and 1.296 and 0.676 and 1.006
same,blood lipids (TG) in Apo E−/− mice,"[1]; Time 1, individual mice",1.038 and 0.845 and 1.136 and 1.282 and 0.875 and 1.001 and 0.9307
same,blood lipids (CHO) in Apo E−/− mice,"[1]; Time 2, individual mice",0.8468 and 0.9207 and 0.799 and 1.023 and 0.6043 and 0.8602 and 0.8475 and 0.8932
same,blood lipids (HDL-C) in Apo E−/− mice,"[1]; Time 2, individual mice",1.178 and 0.769 and 0.5861 and 0.7669 and 0.6443 and 0.8023 and 0.8584 and 0.9664
same,blood lipids (LDL-C) in Apo E−/− mice,"[1]; Time 2, individual mice",0.7237 and 0.8132 and 0.6614 and 1.342 and 0.603 and 0.5797 and 1.152 and 1.234
same,blood lipids (TG) in Apo E−/− mice,"[1]; Time 2, individual mice",1.204 and 0.9447 and 1.095 and 1.111 and 0.7477 and 0.9934 and 0.7632 and 0.9336
same,blood lipids (CHO) in Apo E−/− mice,"[1]; Time 3, individual mice",1.237 and 0.9298 and 1.587 and 1.424 and 1.118 and 0.7614 and 1.278 and 1.057
same,blood lipids (HDL-C) in Apo E−/− mice,"[1]; Time 3, individual mice",0.713 (2×) and 0.8416 and 0.6487 and 1.292 and 1.1791 and 0.8576 (2×)
same,blood lipids (LDL-C) in Apo E−/− mice,"[1]; Time 3, individual mice",0.9753 and 0.8023 and 0.8722 and 0.6477 and 0.7655 and 0.4564 and 1.218 and 1.421
same,blood lipids (TG) in Apo E−/− mice,"[1]; Time 3, individual mice",1.341 and 0.9611 and 1.459 and 1.456 and 0.9501 and 1.063 and 1.577 and 0.6584
same,blood lipids (CHO) in Apo E−/− mice,"[1]; Time 4, individual mice",1.183 and 1.199 and 1.344 and 1.673 and 1 and 1.22 and 0.7566 and 1.398
same,blood lipids (HDL-C) in Apo E−/− mice,"[1]; Time 4, individual mice",0.9522 and 1.062 and 0.6434 and 4.724 and 0.6654 and 1.371 and 0.6875 and 0.8419
same,blood lipids (LDL-C) in Apo E−/− mice,"[1]; Time 4, individual mice",1.05 and 1.675 and 0.9086 and 0.8511 and 1.319 and 0.3604 and 0.6019 and 1.123
same,blood lipids (TG) in Apo E−/− mice,"[1]; Time 4, individual mice",1.516 and 1.429 and 2.38 and 2.165 and 1.213 and 1.476 and 0.5106 and 0.9949
same,atherosclerotic plaques in mice (proportion of arterial plaque area),"[2]; HFD + ATV-5 mpk, PO QD 8 W, individual mice, 5 mg/kg, in % (unit assumed)",10.98 and 13.52 and 8.609 and 9.551 and 9.286 and 13.92 and 13.86
same,plaques in the cardiac outflow tracts of mice (proportion of plaques in the left ventricular outflow tract),"[3]; HFD + ATV-5 mpk, PO QD 8 W, individual mice, 5 mg/kg, in %",1.923 and 8.46 and 9.071 and 7.844 and 1.618 and 3.771 and 2.279 and 8.38
"CC(C)c1c(C(=O)Nc2ccccc2)c(-c2ccccc2)c(-c2ccc(F)cc2)n1CC[C@@H](O)C[C@@H](O)CC(=O)O [atorvastatin, reference compound]",Effect on dyslipidemia,"[1]; Apoe KO mice, high-fat diet, atorvastatin 5 mpk QD oral, 8 weeks",dyslipidemia was relieved
same,Proportion of the arterial plaque area,[2]; [4],significantly reduced
same,Left ventricular outflow tract plaques,[3]; [4],significantly fewer plaques than the HFD group
